Where two headings read alike, the source gives them in different places.
Experiments:
Assay in all cases: biochemical
Design in all cases: Eurofins DiscoverX kinase panel, competitive binding assay at 1 uM, percent of DMSO control
Details in all cases: competitive binding, percent of DMSO control
Mps1 = target: T1, Mps1 (Homo sapiens, UniProt P33981)
T1 construct: gene TTK
T1 sequence (P33981 1-857): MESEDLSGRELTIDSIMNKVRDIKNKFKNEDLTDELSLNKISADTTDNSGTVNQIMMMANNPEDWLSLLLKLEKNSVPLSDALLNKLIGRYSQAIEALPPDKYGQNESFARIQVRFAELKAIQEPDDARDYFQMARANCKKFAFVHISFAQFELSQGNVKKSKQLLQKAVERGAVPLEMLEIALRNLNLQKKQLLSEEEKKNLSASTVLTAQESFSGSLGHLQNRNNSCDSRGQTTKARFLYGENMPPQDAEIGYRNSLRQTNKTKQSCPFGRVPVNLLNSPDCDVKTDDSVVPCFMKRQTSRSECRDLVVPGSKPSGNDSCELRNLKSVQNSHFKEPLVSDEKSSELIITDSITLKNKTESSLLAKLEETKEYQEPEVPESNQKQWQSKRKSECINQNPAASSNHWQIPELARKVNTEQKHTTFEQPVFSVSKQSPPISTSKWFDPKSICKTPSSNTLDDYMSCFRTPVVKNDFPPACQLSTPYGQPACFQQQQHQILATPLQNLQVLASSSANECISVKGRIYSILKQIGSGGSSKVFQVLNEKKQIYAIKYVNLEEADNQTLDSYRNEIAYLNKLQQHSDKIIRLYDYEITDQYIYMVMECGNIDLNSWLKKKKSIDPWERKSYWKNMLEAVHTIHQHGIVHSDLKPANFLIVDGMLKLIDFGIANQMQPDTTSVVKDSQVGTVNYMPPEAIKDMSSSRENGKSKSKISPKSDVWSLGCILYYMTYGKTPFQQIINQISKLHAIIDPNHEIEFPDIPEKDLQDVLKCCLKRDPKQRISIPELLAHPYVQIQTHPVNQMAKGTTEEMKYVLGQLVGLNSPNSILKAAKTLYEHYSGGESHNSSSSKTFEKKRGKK
Summary of the method: (§1)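 Single-point profiling at 1 µM compound in a competition-binding format against 96 kinases, read out as POC relative to control; n = 1.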

mTOR = mTOR (Homo sapiens, UniProt P42345)
Summary of the method: as §1

NEK6 = NEK6 (Homo sapiens, UniProt Q9HC98)
Summary of the method: as §1

TGFBR1 = target: T2, TGFBR1 (Homo sapiens, UniProt P36897)
T2 sequence (P36897 1-503): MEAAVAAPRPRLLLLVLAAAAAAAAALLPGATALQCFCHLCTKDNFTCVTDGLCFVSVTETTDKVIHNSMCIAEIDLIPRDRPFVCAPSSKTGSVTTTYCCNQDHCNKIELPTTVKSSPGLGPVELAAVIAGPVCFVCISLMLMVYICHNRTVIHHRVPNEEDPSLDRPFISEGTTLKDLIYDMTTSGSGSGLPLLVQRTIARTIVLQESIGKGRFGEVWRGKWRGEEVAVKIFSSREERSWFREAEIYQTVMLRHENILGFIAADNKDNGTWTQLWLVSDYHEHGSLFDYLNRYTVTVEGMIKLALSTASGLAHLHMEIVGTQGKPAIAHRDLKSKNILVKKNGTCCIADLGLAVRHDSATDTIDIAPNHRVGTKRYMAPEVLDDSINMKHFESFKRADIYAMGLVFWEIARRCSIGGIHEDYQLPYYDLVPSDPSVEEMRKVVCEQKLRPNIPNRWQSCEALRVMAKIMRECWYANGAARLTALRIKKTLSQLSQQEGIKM
Summary of the method: as §1

[1] = read-out: Kinome Profiling performed by Eurofins DiscoverX / AM-1882, 1.0 µM / POC
[2] = read-out: Kinome Profiling performed by Eurofins DiscoverX / AM-0277, 1.0 µM / POC
[3] = read-out: Kinome Profiling performed by Eurofins DiscoverX / AM-5308, 1.0 µM / POC

Chain of NEK6 (Q9HC98 whole entry): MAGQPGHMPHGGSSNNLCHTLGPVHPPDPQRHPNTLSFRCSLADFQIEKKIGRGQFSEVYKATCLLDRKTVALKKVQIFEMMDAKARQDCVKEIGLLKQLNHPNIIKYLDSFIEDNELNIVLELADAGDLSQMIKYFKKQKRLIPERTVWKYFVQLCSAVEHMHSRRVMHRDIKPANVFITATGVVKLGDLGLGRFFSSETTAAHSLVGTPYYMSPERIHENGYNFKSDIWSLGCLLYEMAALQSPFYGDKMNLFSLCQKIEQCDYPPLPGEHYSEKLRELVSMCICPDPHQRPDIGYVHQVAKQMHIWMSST

CC(C)(C)NS(=O)(=O)c1cccc(NC(=O)c2ccc(S(=O)(=O)NC(C)(C)C)cc2N2CCC3(CC2)CC3)c1 [AM-1882]
remaining activity at 1 µM (Mps1; [1]): 97%
remaining activity at 1 µM (mTOR; [1]): 98.5%
remaining activity at 1 µM (NEK6; [1]): 100%
remaining activity at 1 µM (TGFBR1; [1]): 94%

CC(C)(CO)Nc1ccc(C(=O)Nc2cccc(S(=O)(=O)C3CCCC3)c2)c(N2CCC3(CC2)CC3)n1 [AM-0277]
remaining activity at 1 µM (Mps1; [2]): 76%
remaining activity at 1 µM (mTOR; [2]): 100%
remaining activity at 1 µM (NEK6; [2]): 94%
remaining activity at 1 µM (TGFBR1; [2]): 73%

C[C@@H]1CN(c2cccc(NC(=O)c3ccc(NS(=O)(=O)CCO)cc3N3CCC4(CC3)CC4)n2)CCO1 [AM-5308]
remaining activity at 1 µM (Mps1; [3]): 47%
remaining activity at 1 µM (mTOR; [3]): 100%
remaining activity at 1 µM (NEK6; [3]): 95%
remaining activity at 1 µM (TGFBR1; [3]): 100%
